Columns and labels:
Assay in all cases: cells
Type in all cases: functional, cell-based, Homo sapiens
[1] = system: KALS-1; details: Homo sapiens, KALS-1;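 note: growth inhibition of KALS-1 cells, determined with a cell viability assay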
Description: SANGER: Inhibition of human KALS-1 cell growth in a cell viability assay.

[2] = system: VA-ES-BJ; details: Homo sapiens, VA-ES-BJ;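 note: growth inhibition of the VA-ES-BJ cell line, read out by a cell viability assay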
Description: SANGER: Inhibition of human VA-ES-BJ cell growth in a cell viability assay.

[3] = system: ALL-PO; details: Homo sapiens, ALL-PO;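 note: growth inhibition of ALL-PO cells, read out by a cell viability assay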
Description: SANGER: Inhibition of human ALL-PO cell growth in a cell viability assay.

[4] = system: MHH-NB-11; details: Homo sapiens, MHH-NB-11;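 note: growth inhibition of human MHH-NB-11 cells, read out by a cell viability assay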
Description: SANGER: Inhibition of human MHH-NB-11 cell growth in a cell viability assay.

[5] = system: SK-PN-DW; details: Homo sapiens, SK-PN-DW;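 note: growth inhibition measured with a viability assay on these cells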
Description: SANGER: Inhibition of human SK-PN-DW cell growth in a cell viability assay.

[6] = system: LB1047-RCC; details: Homo sapiens, LB1047-RCC;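 note: inhibition of cell growth, determined with a cell viability assay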
Description: SANGER: Inhibition of human LB1047-RCC cell growth in a cell viability assay.

[7] = system: SK-UT-1; details: Homo sapiens, SK-UT-1;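 note: growth inhibition of SK-UT-1 cells, measured by a cell viability assay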
Description: SANGER: Inhibition of human SK-UT-1 cell growth in a cell viability assay.

[8] = system: SW 962; details: Homo sapiens, SW 962;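 note: growth inhibition of human SW962 cells, read out by a cell viability assay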
Description: SANGER: Inhibition of human SW962 cell growth in a cell viability assay.

[9] = system: EW-18; details: Homo sapiens, EW-18;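 note: growth inhibition of EW-18 cells, read out by a cell viability assay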
Description: SANGER: Inhibition of human EW-18 cell growth in a cell viability assay.

[10] = system: GR-ST; details: Homo sapiens, GR-ST
Description: SANGER: Inhibition of human GR-ST cell growth in a cell viability assay.

[11] = system: HC-1; details: Homo sapiens, HC-1;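 note: growth inhibition of HC-1 cells measured by a cell viability assay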
Description: SANGER: Inhibition of human HC-1 cell growth in a cell viability assay.

[12] = system: LB373-MEL-D; details: Homo sapiens, LB373-MEL-D;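 note: growth inhibition of the cell line, read out in a cell viability assay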
Description: SANGER: Inhibition of human LB373-MEL-D cell growth in a cell viability assay.

[13] = system: KY821; details: Homo sapiens, KY821;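 note: growth inhibition of human KY821 cells, read out by a cell viability assay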
Description: SANGER: Inhibition of human KY821 cell growth in a cell viability assay.

[14] = system: HOP-62; details: Homo sapiens, HOP-62;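 note: cell growth inhibition determined with a viability assay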
Description: SANGER: Inhibition of human HOP-62 cell growth in a cell viability assay.

[15] = system: MMAC-SF; details: Homo sapiens, MMAC-SF;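 note: growth inhibition of human MMAC-SF cells, read out with a cell viability assay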
Description: SANGER: Inhibition of human MMAC-SF cell growth in a cell viability assay.

[16] = system: CCRF-CEM; details: Homo sapiens, CCRF-CEM;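 note: inhibition of CCRF-CEM cell growth, measured by a cell viability assay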
Description: SANGER: Inhibition of human CCRF-CEM cell growth in a cell viability assay.

[17] = system: NCI-H526; details: Homo sapiens, NCI-H526;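 note: growth inhibition of the human NCI-H526 cell line, measured by a cell viability assay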
Description: SANGER: Inhibition of human NCI-H526 cell growth in a cell viability assay.

[18] = system: ML-2; details: Homo sapiens, ML-2;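 note: growth inhibition of ML-2 cells, measured with a cell viability readout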
Description: SANGER: Inhibition of human ML-2 cell growth in a cell viability assay.

[19] = system: KP-N-YS; details: Homo sapiens, KP-N-YS;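 note: cell viability assay measuring inhibition of cell line growth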
Description: SANGER: Inhibition of human KP-N-YS cell growth in a cell viability assay.

[20] = system: GB-1; details: Homo sapiens, GB-1;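 note: growth of GB-1 cells judged by a viability assay, IC50 marks the concentration inhibiting growth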
Description: SANGER: Inhibition of human GB-1 cell growth in a cell viability assay.

[21] = system: TE-5; details: Homo sapiens, TE-5;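 note: inhibition of cell growth, read out by a cell viability assay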
Description: SANGER: Inhibition of human TE-5 cell growth in a cell viability assay.

[22] = system: NKM-1; details: Homo sapiens, NKM-1;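 note: growth inhibition of NKM-1 cells, read out with a cell viability assay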
Description: SANGER: Inhibition of human NKM-1 cell growth in a cell viability assay.

[23] = system: CGTH-W-1; details: Homo sapiens, CGTH-W-1;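 note: growth inhibition of human CGTH-W-1 cells measured by cell viability assay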
Description: SANGER: Inhibition of human CGTH-W-1 cell growth in a cell viability assay.

[24] = system: NCI-H1581; details: Homo sapiens, NCI-H1581;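 note: cell growth inhibition read out by a viability assay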
Description: SANGER: Inhibition of human NCI-H1581 cell growth in a cell viability assay.

[25] = system: K562; details: Homo sapiens, K562
Description: SANGER: Inhibition of human K-562 cell growth in a cell viability assay.

[26] = system: NMC-G1; details: Homo sapiens, NMC-G1;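 note: growth inhibition of the NMC-G1 cell line, measured with a cell viability read-out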
Description: SANGER: Inhibition of human NMC-G1 cell growth in a cell viability assay.

[27] = system: A101D; details: Homo sapiens, A101D;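 note: growth inhibition of the cell line, measured with a viability assay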
Description: SANGER: Inhibition of human A101D cell growth in a cell viability assay.

[28] = system: COR-L88; details: Homo sapiens, COR-L88;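 note: growth inhibition of COR-L88 cells, read out with a cell viability assay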
Description: SANGER: Inhibition of human COR-L88 cell growth in a cell viability assay.

[29] = system: NCI-H1838; details: Homo sapiens, NCI-H1838;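 note: growth inhibition of NCI-H1838 cells, determined with a cell viability readout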
Description: SANGER: Inhibition of human NCI-H1838 cell growth in a cell viability assay.

[30] = system: KU812 cell line; details: Homo sapiens, KU812;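 note: growth inhibition of KU812 cells, read out with a cell viability assay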
Description: SANGER: Inhibition of human KU812 cell growth in a cell viability assay.

[31] = system: Becker; details: Homo sapiens, Becker;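 note: growth inhibition of Becker cells, read out with a cell viability assay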
Description: SANGER: Inhibition of human Becker cell growth in a cell viability assay.

[32] = system: NB17; details: Homo sapiens, NB17;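 note: growth inhibition of NB17 cells, read out with a cell viability assay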
Description: SANGER: Inhibition of human NB17 cell growth in a cell viability assay.

[33] = system: GI-ME-N; details: Homo sapiens, GI-ME-N;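 note: growth inhibition of human GI-ME-N cells, read out with a cell viability assay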
Description: SANGER: Inhibition of human GI-ME-N cell growth in a cell viability assay.

[34] = system: KGN; details: Homo sapiens, KGN;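 note: growth inhibition of KGN cells, read out with a cell viability assay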
Description: SANGER: Inhibition of human KGN cell growth in a cell viability assay.

[35] = system: HH; details: Homo sapiens, HH
Description: SANGER: Inhibition of human HH cell growth in a cell viability assay.

[36] = system: TGBC24TKB; details: Homo sapiens, TGBC24TKB;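 note: growth inhibition of human TGBC24TKB cells, read out with a cell viability assay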
Description: SANGER: Inhibition of human TGBC24TKB cell growth in a cell viability assay.

[37] = system: MPP-89; details: Homo sapiens, MPP-89;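 note: growth inhibition of human MPP-89 cells, read out with a cell viability assay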
Description: SANGER: Inhibition of human MPP-89 cell growth in a cell viability assay.

[38] = system: IST-SL1; details: Homo sapiens, IST-SL1;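 note: growth inhibition of human IST-SL1 cells, read out with a cell viability assay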
Description: SANGER: Inhibition of human IST-SL1 cell growth in a cell viability assay.

[39] = system: ES8; details: Homo sapiens, ES8;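 note: growth inhibition of human ES8 cells, read out with a cell viability assay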
Description: SANGER: Inhibition of human ES8 cell growth in a cell viability assay.

[40] = system: EOL1; details: Homo sapiens, EOL1;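 note: growth inhibition of EoL-1 cells, read out by a cell viability assay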
Description: SANGER: Inhibition of human EoL-1-cell cell growth in a cell viability assay.

[41] = system: BE-13; details: Homo sapiens, BE-13;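 note: growth inhibition of human BE-13 cells, measured with a cell viability assay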
Description: SANGER: Inhibition of human BE-13 cell growth in a cell viability assay.

[42] = system: KLE; details: Homo sapiens, KLE;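 note: growth inhibition of human KLE cells, read out with a cell viability assay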
Description: SANGER: Inhibition of human KLE cell growth in a cell viability assay.

[43] = system: LB2241-RCC; details: Homo sapiens, LB2241-RCC;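 note: cell viability assay measuring how strongly the cultured human renal carcinoma line is prevented from growing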
Description: SANGER: Inhibition of human LB2241-RCC cell growth in a cell viability assay.

[44] = system: LB831-BLC; details: Homo sapiens, LB831-BLC;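 note: growth inhibition of LB831-BLC cells, read out with a cell viability assay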
Description: SANGER: Inhibition of human LB831-BLC cell growth in a cell viability assay.

[45] = system: KM12; details: Homo sapiens, KM12;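 note: KM12 cell growth inhibition, read out with a cell viability assay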
Description: SANGER: Inhibition of human KM12 cell growth in a cell viability assay.

[46] = system: ONS-76; details: Homo sapiens, ONS-76;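 note: growth inhibition of human ONS-76 cells, read out with a cell viability assay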
Description: SANGER: Inhibition of human ONS-76 cell growth in a cell viability assay.

[47] = system: A3-KAW; details: Homo sapiens, A3-KAW;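 note: growth inhibition of human A3-KAW cells, read out with a cell viability assay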
Description: SANGER: Inhibition of human A3-KAW cell growth in a cell viability assay.

SMILES: CC(=O)O[C@H]1C(=O)[C@@]2(C)[C@H]([C@H](OC(=O)c3ccccc3)[C@]3(O)C[C@H](OC(=O)[C@H](O)[C@@H](NC(=O)c4ccccc4)c4ccccc4)C(C)=C1C3(C)C)[C@]1(OC(C)=O)CO[C@@H]1C[C@@H]2O [PACLITAXEL]
- IC50 [1]: 3.08 nM
- IC50 [2]: 3 nM
- IC50 [3]: 6.3 nM
- IC50 [4]: > 102 nM
- IC50 [5]: 11.1 nM
- IC50 [6]: 25.1 nM
- IC50 [7]: 4.8 nM
- IC50 [8]: 6.62 nM
- IC50 [9]: > 102 nM
- IC50 [10]: 56.2 nM
- IC50 [11]: 7.21 nM
- IC50 [12]: 41.1 nM
- IC50 [13]: 27 nM
- IC50 [14]: 12.8 nM
- IC50 [15]: 45.3 nM
- IC50 [16]: 8.71 nM
- IC50 [17]: 28.9 nM
- IC50 [18]: 20.5 nM
- IC50 [19]: > 102 nM
- IC50 [20]: 36 nM
- IC50 [21]: 15 nM
- IC50 [22]: > 102 nM
- IC50 [23]: 54.5 nM
- IC50 [24]: 49.5 nM
- IC50 [25]: 15.2 nM
- IC50 [26]: 34.5 nM
- IC50 [27]: 9.6 nM
- IC50 [28]: 59.3 nM
- IC50 [29]: > 102 nM
- IC50 [30]: 20.4 nM
- IC50 [31]: 7.2 nM
- IC50 [32]: 49.8 nM
- IC50 [33]: 84.5 nM
- IC50 [34]: 7.12 nM
- IC50 [35]: 71.6 nM
- IC50 [36]: 7.52 nM
- IC50 [37]: > 102 nM
- IC50 [38]: 30.4 nM
- IC50 [39]: 5.38 nM
- IC50 [40]: 26.9 nM
- IC50 [41]: 6.36 nM
- IC50 [42]: > 102 nM
- IC50 [43]: > 102 nM
- IC50 [44]: 24.8 nM
- IC50 [45]: 6.37 nM
- IC50 [46]: 20.4 nM
- IC50 [47]: 73.5 nM

SMILES: COc1cc(-c2nn([C@H]3CC[C@H](N4CCN(C(C)=O)CC4)CC3)c3ncnc(N)c23)ccc1NC(=O)c1cc2ccccc2n1C
- IC50 [1]: 2530 nM
- IC50 [2]: > 5120 nM
- IC50 [3]: > 5120 nM
- IC50 [4]: > 5120 nM
- IC50 [5]: > 5120 nM
- IC50 [6]: 143 nM
- IC50 [7]: > 5120 nM
- IC50 [8]: > 5120 nM
- IC50 [9]: > 5120 nM
- IC50 [10]: > 5120 nM
- IC50 [11]: 3190 nM
- IC50 [12]: > 5120 nM
- IC50 [13]: 3650 nM
- IC50 [14]: 475 nM
- IC50 [15]: > 5120 nM
- IC50 [16]: > 5120 nM
- IC50 [17]: > 5120 nM
- IC50 [18]: > 5120 nM
- IC50 [19]: > 5120 nM
- IC50 [20]: 678 nM
- IC50 [21]: > 5120 nM
- IC50 [22]: > 5120 nM
- IC50 [23]: > 5120 nM
- IC50 [24]: > 5120 nM
- IC50 [25]: 392 nM
- IC50 [26]: 573 nM
- IC50 [27]: 3710 nM
- IC50 [28]: > 5120 nM
- IC50 [29]: > 5120 nM
- IC50 [30]: > 5120 nM
- IC50 [31]: 4210 nM
- IC50 [32]: > 5120 nM
- IC50 [33]: 2290 nM
- IC50 [34]: 887 nM
- IC50 [35]: > 5120 nM
- IC50 [36]: 808 nM
- IC50 [37]: > 5120 nM
- IC50 [38]: > 5120 nM
- IC50 [39]: > 5120 nM
- IC50 [40]: 4550 nM
- IC50 [41]: > 5120 nM
- IC50 [42]: 2500 nM
- IC50 [43]: > 5120 nM
- IC50 [44]: 593 nM
- IC50 [45]: > 5120 nM
- IC50 [46]: > 5120 nM
- IC50 [47]: > 5120 nM

SMILES: N[C@@H](CSC(c1ccccc1)(c1ccccc1)c1ccccc1)C(=O)O [S-TRITYL-L-CYSTEINE]
- IC50 [1]: 1320 nM
- IC50 [2]: 804 nM
- IC50 [3]: 2250 nM
- IC50 [4]: 4670 nM
- IC50 [5]: 1350 nM
- IC50 [6]: 2600 nM
- IC50 [7]: 626 nM
- IC50 [8]: 1140 nM
- IC50 [9]: > 5120 nM
- IC50 [10]: 2970 nM
- IC50 [11]: 1050 nM
- IC50 [12]: 2840 nM
- IC50 [13]: 1780 nM
- IC50 [14]: 2980 nM
- IC50 [15]: 2690 nM
- IC50 [16]: 2110 nM
- IC50 [17]: 4450 nM
- IC50 [18]: 2090 nM
- IC50 [19]: > 5120 nM
- IC50 [20]: > 5120 nM
- IC50 [21]: > 5120 nM
- IC50 [22]: > 5120 nM
- IC50 [23]: > 5120 nM
- IC50 [24]: 3600 nM
- IC50 [25]: 1540 nM
- IC50 [26]: 3400 nM
- IC50 [27]: 1730 nM
- IC50 [28]: > 5120 nM
- IC50 [29]: > 5120 nM
- IC50 [30]: > 5120 nM
- IC50 [31]: 616 nM
- IC50 [32]: 3070 nM
- IC50 [33]: 2280 nM
- IC50 [34]: 622 nM
- IC50 [35]: 3510 nM
- IC50 [36]: 2220 nM
- IC50 [37]: > 5120 nM
- IC50 [38]: 4340 nM
- IC50 [39]: 432 nM
- IC50 [40]: 1190 nM
- IC50 [41]: 1080 nM
- IC50 [42]: > 5120 nM
- IC50 [43]: > 5120 nM
- IC50 [44]: > 5120 nM
- IC50 [45]: 4670 nM
- IC50 [46]: > 5120 nM
- IC50 [47]: 835 nM
